Broadly, the EC50 is the concentration that produces a half-maximal response. Usually Emax stands for the maximal effect, on the per cent scale that the assay sets.

Structures are written as SMILES.

In the assay the target is human F508del-CFTR (Homo sapiens, UniProt P13569, DEL508-508). Put plainly: F508del-CFTR cell surface expression (corrector activity), DiscoveRx ß-galactosidase complementation chemiluminescence assay in recombinant U2OS cell line.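 For all read-outs here: U2OS cells co-expressing ProLink-tagged F508del-CFTR and a membrane-anchored enzyme acceptor, where more surface CFTR restores β-galactosidase activity measured by chemiluminescence.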 Conditions: for EC50: EC50, F508del-CFTR cell surface expression, U2OS cells, 16h compound incubation, geomean values; for Emax: U2OS, in relation to Emax of corrector lumacaftor (=100%), arithmetic mean values.
Chain of human F508del-CFTR (P13569 with tags, fused parts or gaps DEL508-508): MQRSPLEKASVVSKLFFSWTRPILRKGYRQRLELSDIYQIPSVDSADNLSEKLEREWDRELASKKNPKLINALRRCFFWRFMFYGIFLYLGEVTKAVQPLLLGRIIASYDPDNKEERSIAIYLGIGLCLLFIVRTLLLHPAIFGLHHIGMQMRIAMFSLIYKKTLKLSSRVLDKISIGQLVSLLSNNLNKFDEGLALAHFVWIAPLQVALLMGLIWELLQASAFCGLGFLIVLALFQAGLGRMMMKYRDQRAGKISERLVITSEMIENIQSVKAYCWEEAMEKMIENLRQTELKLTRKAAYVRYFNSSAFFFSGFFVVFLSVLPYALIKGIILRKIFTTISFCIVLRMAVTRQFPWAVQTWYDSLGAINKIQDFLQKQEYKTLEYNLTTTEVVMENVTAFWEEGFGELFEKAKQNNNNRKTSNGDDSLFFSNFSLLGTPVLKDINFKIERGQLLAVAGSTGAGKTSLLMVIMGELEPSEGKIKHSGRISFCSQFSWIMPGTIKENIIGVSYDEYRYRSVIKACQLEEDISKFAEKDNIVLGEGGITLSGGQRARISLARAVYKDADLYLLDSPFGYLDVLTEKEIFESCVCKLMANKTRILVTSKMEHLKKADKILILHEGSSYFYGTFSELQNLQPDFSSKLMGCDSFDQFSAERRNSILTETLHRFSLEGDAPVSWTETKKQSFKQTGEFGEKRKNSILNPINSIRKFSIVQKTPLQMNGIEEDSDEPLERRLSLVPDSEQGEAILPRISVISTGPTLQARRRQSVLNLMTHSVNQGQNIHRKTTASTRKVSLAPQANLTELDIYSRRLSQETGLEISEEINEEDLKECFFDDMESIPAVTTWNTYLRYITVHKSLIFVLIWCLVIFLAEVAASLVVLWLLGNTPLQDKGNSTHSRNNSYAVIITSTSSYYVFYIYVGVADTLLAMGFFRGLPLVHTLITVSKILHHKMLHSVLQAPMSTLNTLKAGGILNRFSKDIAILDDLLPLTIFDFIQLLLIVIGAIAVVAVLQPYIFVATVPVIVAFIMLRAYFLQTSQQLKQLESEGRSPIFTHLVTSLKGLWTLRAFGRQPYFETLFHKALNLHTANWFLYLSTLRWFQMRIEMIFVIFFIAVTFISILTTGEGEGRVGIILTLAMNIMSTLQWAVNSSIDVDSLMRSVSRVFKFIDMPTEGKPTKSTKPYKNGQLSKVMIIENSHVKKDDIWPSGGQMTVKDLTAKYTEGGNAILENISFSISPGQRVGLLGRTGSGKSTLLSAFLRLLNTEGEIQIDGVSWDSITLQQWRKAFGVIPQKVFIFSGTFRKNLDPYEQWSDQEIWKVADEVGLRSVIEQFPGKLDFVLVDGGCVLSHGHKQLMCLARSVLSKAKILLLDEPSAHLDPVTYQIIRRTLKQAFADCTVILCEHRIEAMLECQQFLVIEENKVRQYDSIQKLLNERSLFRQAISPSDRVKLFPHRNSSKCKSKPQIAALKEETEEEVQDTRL

`Cc1cc(CCNC(=O)[C@@H]2CC(=O)N(C)[C@@H](CC(C)C)C(=O)N(C)[C@H](CCOCc3ccccc3)C(=O)N[C@H](Cc3ccccc3)COc3cnc4ccccc4c3C(=O)N2)on1` [Example 578, (3S,7S,10R,13R)-13-benzyl-10-(2-(benzyloxy)ethyl)-7-isobutyl-6,9-dimethyl-N-(2-(3-methylisoxazol-5-yl)ethyl)-1,5,8,11-tetraoxo-1,2,3,4,5,6,7,8,9,10,11,12,13,14-tetradecahydro-[1]oxa[4,7,10,14]tetraazacycloheptadecino[17,16-c]quinoline-3-carboxamide]: the EC50 came to 0.053 µM and the Emax came out at 319%.
The corresponding values for `Cc1cc(CCNC(=O)[C@@H]2CC(=O)N(C)[C@@H](CC(C)C)C(=O)N(C)[C@@H](CCOCc3ccccc3)C(=O)N[C@H](Cc3ccccc3)COc3cnc4ccccc4c3C(=O)N2)on1` [Example 579, (3S,7S,10S,13R)-13-benzyl-10-(2-(benzyloxy)ethyl)-7-isobutyl-6,9-dimethyl-N-(2-(3-methylisoxazol-5-yl)ethyl)-1,5,8,11-tetraoxo-1,2,3,4,5,6,7,8,9,10,11,12,13,14-tetradecahydro-[1]oxa[4,7,10,14]tetraazacycloheptadecino[17,16-c]quinoline-3-carboxamide] are 0.399 µM and 131%.
For `COc1cc(CCNC(=O)[C@@H]2CC(=O)N(C)[C@@H](CC(C)C)C(=O)N3CCC4(CC4)C[C@@H]3C(=O)N[C@H](Cc3ccccc3)COc3cc(C)nc(OC)c3C(=O)N2)on1` [Example 580, (7′S,11′S,17a′R,20′R)-20′-benzyl-11′-isobutyl-4′-methoxy-N-(2-(3-methoxyisoxazol-5-yl)ethyl)-2′,10′-dimethyl-5′,9′,12′,18′-tetraoxo-5′,6′,7′,8′,9′,10′,11′,12′,14′,15′,17′,17a′,18′,19′,20′,21′-hexadecahydrospiro[cyclopropane-1,16′-dipyrido[2,1-f:3′,4′-p][1]oxa[4,7,10,14]tetraazacycloheptadecine]-7′-carboxamide], in that order: 0.198 µM and 319%.
For `[2H]C([2H])([2H])Oc1nc(C)cc2c1C(=O)N[C@H](C(=O)NCCc1cc(OC)no1)CC(=O)N(C)[C@@H](CC(C)C)C(=O)N1CCCC[C@@H]1C(=O)N[C@H](Cc1ccccc1)CO2` [Example 581, (7S,11S,17aR,20R)-20-benzyl-11-isobutyl-4-(methoxy-d3)-N-(2-(3-methoxyisoxazol-5-yl)ethyl)-2,10-dimethyl-5,9,12,18-tetraoxo-5,6,7,8,9,10,11,12,15,16,17,17a,18,19,20,21-hexadecahydro-14H-dipyrido[2,1-f:3′,4′-p][1]oxa[4,7,10,14]tetraazacycloheptadecine-7-carboxamide], in that order: 0.3 µM and 303%.
Consider `COc1cc(CCNC(=O)[C@@H]2CC(=O)N(C)[C@@H](CC(C)C)C(=O)N(CCC3CCCCC3)CC(=O)N[C@H](Cc3ccccc3)COc3ccnc(OC)c3C(=O)N2)on1` [Example 582, (3R,9S,13S)-3-benzyl-7-(2-cyclohexylethyl)-9-isobutyl-16-methoxy-N-(2-(3-methoxyisoxazol-5-yl)ethyl)-10-methyl-5,8,11,15-tetraoxo-2,3,4,5,6,7,8,9,10,11,12,13,14,15-tetradecahydropyrido[3,4-p][1]oxa[4,7,10,14]tetraazacycloheptadecine-13-carboxamide], for which the EC50 worked out at 0.116 µM and the Emax was found to be 279%.
In the case of `Cc1ccc2c(c1)OC[C@@H](Cc1ccccc1)NC(=O)CN(C)C(=O)[C@H](CC(C)C)N(C)C(=O)C[C@@H](C(=O)NCCc1ccc3c(c1)OCO3)NC2=O` [Example 583, (3R,9S,13S)-N-(2-(benzo[d][1,3]dioxol-5-yl)ethyl)-3-benzyl-9-isobutyl-7,10,18-trimethyl-5,8,11,15-tetraoxo-2,3,4,5,6,7,8,9,10,11,12,13,14,15-tetradecahydrobenzo[p][1]oxa[4,7,10,14]tetraazacycloheptadecine-13-carboxamide], the EC50 was determined as 0.339 µM and the Emax worked out at 90%.
As to `COc1cccc(CCNC(=O)[C@@H]2CC(=O)N(C)[C@@H](CC(C)C)C(=O)N3CC[C@@H](C3)C(=O)N[C@H](Cc3ccccc3)COc3ccc(OC)cc3C(=O)N2)c1` [Example 584, (13S,4R,10S,14S)-4-benzyl-14-isobutyl-74-methoxy-N-(3-methoxyphenethyl)-13-methyl-2,8,12,15-tetraoxo-6-oxa-3,9,13-triaza-1(3,1)-pyrrolidina-7(1,2)-benzenacyclopentadecaphane-10-carboxamide], the EC50 stood at 0.575 µM and the Emax amounted to 156%.
`COc1cc2c(cc1OC)C(=O)N[C@H](C(=O)NCCc1ccc3c(c1)OCO3)CC(=O)N(C)[C@@H](CC(C)C)C(=O)N(CCC1CCCCC1)CC(=O)N[C@H](Cc1ccccc1)CO2` [Example 585, (3R,9S,13S)-N-(2-(benzo[d][1,3]dioxol-5-yl)ethyl)-3-benzyl-7-(2-cyclohexylethyl)-9-isobutyl-17,18-dimethoxy-10-methyl-5,8,11,15-tetraoxo-2,3,4,5,6,7,8,9,10,11,12,13,14,15-tetradecahydrobenzo[p][1]oxa[4,7,10,14]tetraazacycloheptadecine-13-carboxamide]: the EC50 came to 0.176 µM and the maximal response (Emax) stood at 168%.
In the case of `COc1cccc(CCNC(=O)[C@@H]2CC(=O)N(C)[C@@H](CC(C)C)C(=O)N(CCC3CCCCC3)CC(=O)N[C@H](Cc3ccccc3)COc3cc(OC)c(OC)cc3C(=O)N2)c1` [Example 586, (3R,9S,13S)-3-benzyl-7-(2-cyclohexylethyl)-9-isobutyl-17,18-dimethoxy-N-(3-methoxyphenethyl)-10-methyl-5,8,11,15-tetraoxo-2,3,4,5,6,7,8,9,10,11,12,13,14,15-tetradecahydrobenzo[p][1]oxa[4,7,10,14]tetraazacycloheptadecine-13-carboxamide], the EC50 was found to be 0.221 µM and the Emax was 165%.
The corresponding values for `COc1cccc(CCNC(=O)[C@@H]2CC(=O)N(C)[C@@H](CC(C)C)C(=O)N3CCCC[C@@H]3C(=O)N[C@H](Cc3ccccc3)COc3ccc(OC)cc3C(=O)N2)c1` [Example 587, (7S,11S,20R,22aR)-20-benzyl-7-isobutyl-15-methoxy-N-(3-methoxyphenethyl)-8-methyl-6,9,13,22-tetraoxo-1,3,4,6,7,8,9,10,11,12,13,19,20,21,22,22a-hexadecahydro-2H-benzo[p]pyrido[2,1-f][1]oxa[4,7,10,14]tetraazacycloheptadecine-11-carboxamide] are 0.414 µM and 106%.
With `COc1cccc(CCNC(=O)[C@@H]2CC(=O)N(C)[C@@H](CC(C)C)C(=O)N3CCOC[C@@H]3C(=O)N[C@H](Cc3ccccc3)COc3ccc(OC)cc3C(=O)N2)c1` [Example 588, (7S,11S,20R,22aR)-20-benzyl-7-isobutyl-15-methoxy-N-(3-methoxyphenethyl)-8-methyl-6,9,13,22-tetraoxo-1,3,4,6,7,8,9,10,11,12,13,19,20,21,22,22a-hexadecahydrobenzo[p][1,4]oxazino[3,4-f][1]oxa[4,7,10,14]tetraazacycloheptadecine-11-carboxamide], the EC50 came out at 0.65 µM and the Emax turned out to be 102%.
In the case of `CC(C)C[C@H]1C(=O)N(CCC2CCCCC2)CC(=O)N[C@H](Cc2ccccc2)COc2ccncc2C(=O)N[C@H](C(=O)NCCc2ccc3c(c2)OCO3)CC(=O)N1C` [Example 589, (3R,9S,13S)-N-(2-(benzo[d][1,3]dioxol-5-yl)ethyl)-3-benzyl-7-(2-cyclohexylethyl)-9-isobutyl-10-methyl-5,8,11,15-tetraoxo-2,3,4,5,6,7,8,9,10,11,12,13,14,15-tetradecahydropyrido[3,4-p][1]oxa[4,7,10,14]tetraazacycloheptadecine-13-carboxamide], the EC50 came out at 0.298 µM and the Emax turned out to be 160%.
As for `COc1cccc(CCNC(=O)[C@@H]2CC(=O)N(C)[C@@H](CC(C)C)C(=O)N(CCC3CCCCC3)CC(=O)N[C@H](Cc3ccccc3)COc3ccncc3C(=O)N2)c1` [Example 590, (3R,9S,13S)-3-benzyl-7-(2-cyclohexylethyl)-9-isobutyl-N-(3-methoxyphenethyl)-10-methyl-5,8,11,15-tetraoxo-2,3,4,5,6,7,8,9,10,11,12,13,14,15-tetradecahydropyrido[3,4-p][1]oxa[4,7,10,14]tetraazacycloheptadecine-13-carboxamide], the EC50 worked out at 0.362 µM and the Emax came to 201%.
For `COc1cccc(CCNC(=O)[C@@H]2CC(=O)N(C)[C@@H](CC(C)C)C(=O)N3CCCC[C@@H]3C(=O)N[C@H](Cc3ccccc3)COc3cccc(OC)c3C(=O)N2)c1` [Example 591, (7S,11S,20R,22aR)-20-benzyl-7-isobutyl-14-methoxy-N-(3-methoxyphenethyl)-8-methyl-6,9,13,22-tetraoxo-1,3,4,6,7,8,9,10,11,12,13,19,20,21,22,22a-hexadecahydro-2H-benzo[p]pyrido[2,1-f][1]oxa[4,7,10,14]tetraazacycloheptadecine-11-carboxamide], in that order: 0.341 µM and 259%.
For `CC(C)C[C@H]1C(=O)N2CCCC[C@H]2C(=O)N[C@H](Cc2ccccc2)COc2ccncc2C(=O)N[C@H](C(=O)NCCc2ccc3c(c2)OCC3)CC(=O)N1C` [Example 592, (7S,11S,17aS,20R)-20-benzyl-N-(2-(2,3-dihydrobenzofuran-6-yl)ethyl)-11-isobutyl-10-methyl-5,9,12,18-tetraoxo-5,6,7,8,9,10,11,12,15,16,17,17a,18,19,20,21-hexadecahydro-14H-dipyrido[2,1-f:3′,4′-p][1]oxa[4,7,10,14]tetraazacycloheptadecine-7-carboxamide], in that order: 0.881 µM and 119%.

Values taken from patent US20240208992A1, “MACROCYCLES AS CFTR MODULATORS” (Idorsia Pharmaceuticals Ltd, priority 2021, published 2024).
